# Results reported in ChEMBL document CHEMBL1140238, “Synthesis of selective SRPK-1 inhibitors: novel tricyclic quinoxaline derivatives” (Bioorg Med Chem Lett, 2005).
# Tested on: not listed separately
# Experiment: In vitro percent inhibition of Cyclin-dependent kinase 2-cyclin A at 10 uM concentration of compound dissolved in 100% DMSO using 5''-[gamma-33P]-triphosphate
# Conditions: not given
row,inhibition [%],Structure (SMILES)
1,27,COc1cc2nc3nc(-c4cccs4)c(-c4cccs4)nc3nc2cc1OC
2,7,O=C(O)CCCc1ccc(-c2nc3cc4ccccc4cc3nc2-c2ccc(CCCC(=O)O)s2)s1

# Biological target: Ribosomal protein S6 kinase (P70S6K) (Homo sapiens) (UniProt Q9UBS0+P23443)
# Experiment: In vitro percent inhibition of Ribosomal protein S6 kinase at 10 uM concentration of compound dissolved in 100% DMSO using 5''-[gamma-33P]-triphosphate
# Format: protein-complex assay
# Conditions: not given
row,inhibition [%],Structure (SMILES)
1,-2,COc1cc2nc3nc(-c4cccs4)c(-c4cccs4)nc3nc2cc1OC
2,18,O=C(O)CCCc1ccc(-c2nc3cc4ccccc4cc3nc2-c2ccc(CCCC(=O)O)s2)s1

# Biological target: Glycogen synthase kinase-3 beta (Homo sapiens) (UniProt P49841)
# Sequence (P49841 whole entry, looked up): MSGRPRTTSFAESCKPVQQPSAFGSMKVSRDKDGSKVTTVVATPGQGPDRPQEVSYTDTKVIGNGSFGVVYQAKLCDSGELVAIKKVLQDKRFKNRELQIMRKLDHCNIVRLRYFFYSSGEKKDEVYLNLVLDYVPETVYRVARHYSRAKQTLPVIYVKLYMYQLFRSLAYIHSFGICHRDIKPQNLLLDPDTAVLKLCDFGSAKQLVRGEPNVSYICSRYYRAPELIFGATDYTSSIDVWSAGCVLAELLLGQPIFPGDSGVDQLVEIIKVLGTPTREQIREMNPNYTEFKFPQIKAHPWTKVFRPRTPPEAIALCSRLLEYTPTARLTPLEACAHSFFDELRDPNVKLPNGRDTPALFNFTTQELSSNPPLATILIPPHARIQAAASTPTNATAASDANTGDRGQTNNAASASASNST
# Experiment: In vitro percent inhibition of Glycogen synthase kinase 3 beta at 10 uM concentration of compound dissolved in 100% DMSO using 5''-[gamma-33P]-triphosphate
# Conditions: not given
row,inhibition [%],Structure (SMILES)
1,4,COc1cc2nc3nc(-c4cccs4)c(-c4cccs4)nc3nc2cc1OC
2,13,O=C(O)CCCc1ccc(-c2nc3cc4ccccc4cc3nc2-c2ccc(CCCC(=O)O)s2)s1

# Biological target: RAF proto-oncogene serine/threonine-protein kinase (Homo sapiens) (UniProt P04049)
# Experiment: In vitro percent inhibition of RAF proto-oncogene serine/threonine-protein kinase at 10 uM concentration of compound dissolved in 100% DMSO using 5''-[gamma-33P]-triphosphate
# Conditions: not given
row,inhibition [%],Structure (SMILES)
1,8,COc1cc2nc3nc(-c4cccs4)c(-c4cccs4)nc3nc2cc1OC
2,12,O=C(O)CCCc1ccc(-c2nc3cc4ccccc4cc3nc2-c2ccc(CCCC(=O)O)s2)s1

# Biological target: Platelet-derived growth factor receptor beta (Homo sapiens) (UniProt P09619)
# Sequence (P09619 whole entry): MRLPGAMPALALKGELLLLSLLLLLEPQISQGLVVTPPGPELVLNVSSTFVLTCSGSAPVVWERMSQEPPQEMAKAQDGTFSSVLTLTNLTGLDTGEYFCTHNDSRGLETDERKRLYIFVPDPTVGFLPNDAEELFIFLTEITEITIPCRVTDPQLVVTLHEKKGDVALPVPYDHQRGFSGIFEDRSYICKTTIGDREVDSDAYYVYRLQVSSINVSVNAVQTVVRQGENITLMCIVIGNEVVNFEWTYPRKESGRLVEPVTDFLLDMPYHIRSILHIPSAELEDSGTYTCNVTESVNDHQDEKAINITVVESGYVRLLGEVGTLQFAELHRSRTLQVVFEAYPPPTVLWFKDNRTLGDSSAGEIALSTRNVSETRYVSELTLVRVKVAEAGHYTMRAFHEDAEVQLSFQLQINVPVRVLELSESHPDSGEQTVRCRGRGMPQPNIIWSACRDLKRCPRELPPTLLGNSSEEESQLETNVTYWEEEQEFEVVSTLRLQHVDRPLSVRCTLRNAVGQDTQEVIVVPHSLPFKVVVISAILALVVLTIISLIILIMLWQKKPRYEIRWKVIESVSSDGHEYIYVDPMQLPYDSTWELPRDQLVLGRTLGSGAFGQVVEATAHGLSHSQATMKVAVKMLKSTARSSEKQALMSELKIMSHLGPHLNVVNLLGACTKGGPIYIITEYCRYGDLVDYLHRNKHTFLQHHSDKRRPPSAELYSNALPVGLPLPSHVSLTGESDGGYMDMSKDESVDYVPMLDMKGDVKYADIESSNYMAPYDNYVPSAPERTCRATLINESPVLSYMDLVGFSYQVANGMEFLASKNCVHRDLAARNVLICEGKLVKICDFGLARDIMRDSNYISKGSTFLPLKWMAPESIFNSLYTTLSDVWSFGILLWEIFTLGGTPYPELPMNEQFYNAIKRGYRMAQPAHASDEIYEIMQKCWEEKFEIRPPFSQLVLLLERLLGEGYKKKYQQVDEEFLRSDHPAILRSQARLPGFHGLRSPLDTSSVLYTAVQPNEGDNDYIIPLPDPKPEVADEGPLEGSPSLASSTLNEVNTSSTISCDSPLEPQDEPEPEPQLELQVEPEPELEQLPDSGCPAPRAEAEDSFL
# Experiment: In vitro percent inhibition of Platelet-derived growth factor receptor, beta polypeptide at 10 uM concentration of compound dissolved in 100% DMSO using 5''-[gamma-33P]-triphosphate
# Conditions: not given
row,inhibition [%],Structure (SMILES)
1,5,COc1cc2nc3nc(-c4cccs4)c(-c4cccs4)nc3nc2cc1OC
2,37,O=C(O)CCCc1ccc(-c2nc3cc4ccccc4cc3nc2-c2ccc(CCCC(=O)O)s2)s1

# Biological target: Mast/stem cell growth factor receptor Kit (Homo sapiens) (UniProt P10721)
# Experiment: In vitro percent inhibition of v-kit Hardy-Zuckerman 4 feline sarcoma viral oncogene homolog at 10 uM concentration of compound dissolved in 100% DMSO using 5''-[gamma-33P]-triphosphate
# Conditions: not given
row,inhibition [%],Structure (SMILES)
1,-4,COc1cc2nc3nc(-c4cccs4)c(-c4cccs4)nc3nc2cc1OC
2,33,O=C(O)CCCc1ccc(-c2nc3cc4ccccc4cc3nc2-c2ccc(CCCC(=O)O)s2)s1

# Biological target: Insulin receptor (Homo sapiens) (UniProt P06213)
# Experiment: In vitro percent inhibition of Insulin receptor at 10 uM concentration of compound dissolved in 100% DMSO using 5''-[gamma-33P]-triphosphate
# Conditions: not given
row,inhibition [%],Structure (SMILES)
1,-7,COc1cc2nc3nc(-c4cccs4)c(-c4cccs4)nc3nc2cc1OC

# Biological target: Hepatocyte growth factor receptor (Homo sapiens) (UniProt P08581)
# Experiment: In vitro percent inhibition of Met proto-oncogene tyrosine kinase at 10 uM concentration of compound dissolved in 100% DMSO using 5''-[gamma-33P]-triphosphate
# Conditions: not given
row,inhibition [%],Structure (SMILES)
1,12,COc1cc2nc3nc(-c4cccs4)c(-c4cccs4)nc3nc2cc1OC
2,7,O=C(O)CCCc1ccc(-c2nc3cc4ccccc4cc3nc2-c2ccc(CCCC(=O)O)s2)s1

# Biological target: Mitogen-activated protein kinase 3 (Homo sapiens) (UniProt P27361)
# Sequence (P27361 whole entry): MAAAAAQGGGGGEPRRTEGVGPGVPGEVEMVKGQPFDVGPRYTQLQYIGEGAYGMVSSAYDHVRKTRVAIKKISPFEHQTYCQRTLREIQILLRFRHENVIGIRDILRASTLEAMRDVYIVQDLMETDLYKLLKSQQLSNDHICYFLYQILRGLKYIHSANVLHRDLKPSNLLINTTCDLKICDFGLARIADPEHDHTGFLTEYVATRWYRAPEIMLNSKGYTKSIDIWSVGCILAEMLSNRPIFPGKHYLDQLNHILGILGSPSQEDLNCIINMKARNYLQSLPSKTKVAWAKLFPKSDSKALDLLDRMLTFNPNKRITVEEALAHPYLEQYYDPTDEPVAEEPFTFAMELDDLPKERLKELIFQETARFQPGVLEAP
# Experiment: In vitro percent inhibition of Mitogen-activated protein kinase 3 at 10 uM concentration of compound dissolved in 100% DMSO using 5''-[gamma-33P]-triphosphate
# Conditions: not given
row,inhibition [%],Structure (SMILES)
1,20,COc1cc2nc3nc(-c4cccs4)c(-c4cccs4)nc3nc2cc1OC
2,6,O=C(O)CCCc1ccc(-c2nc3cc4ccccc4cc3nc2-c2ccc(CCCC(=O)O)s2)s1

# Biological target: RAC-alpha serine/threonine-protein kinase (Homo sapiens) (UniProt P31749)
# Experiment: In vitro percent inhibition of Protein kinase B, alpha at 10 uM concentration of compound dissolved in 100% DMSO using 5''-[gamma-33P]-triphosphate
# Conditions: not given
row,inhibition [%],Structure (SMILES)
1,-4,COc1cc2nc3nc(-c4cccs4)c(-c4cccs4)nc3nc2cc1OC

# Biological target: Tyrosine-protein kinase Lck (Homo sapiens) (UniProt P06239)
# Experiment: In vitro percent inhibition of p56 Lck tyrosine kinase at 10 uM concentration of compound dissolved in 100% DMSO using 5''-[gamma-33P]-triphosphate
# Conditions: not given
row,inhibition [%],Structure (SMILES)
1,-7,COc1cc2nc3nc(-c4cccs4)c(-c4cccs4)nc3nc2cc1OC
2,9,O=C(O)CCCc1ccc(-c2nc3cc4ccccc4cc3nc2-c2ccc(CCCC(=O)O)s2)s1

# Biological target: Rho-associated protein kinase 2 (Homo sapiens) (UniProt O75116)
# Sequence (O75116 whole entry, looked up): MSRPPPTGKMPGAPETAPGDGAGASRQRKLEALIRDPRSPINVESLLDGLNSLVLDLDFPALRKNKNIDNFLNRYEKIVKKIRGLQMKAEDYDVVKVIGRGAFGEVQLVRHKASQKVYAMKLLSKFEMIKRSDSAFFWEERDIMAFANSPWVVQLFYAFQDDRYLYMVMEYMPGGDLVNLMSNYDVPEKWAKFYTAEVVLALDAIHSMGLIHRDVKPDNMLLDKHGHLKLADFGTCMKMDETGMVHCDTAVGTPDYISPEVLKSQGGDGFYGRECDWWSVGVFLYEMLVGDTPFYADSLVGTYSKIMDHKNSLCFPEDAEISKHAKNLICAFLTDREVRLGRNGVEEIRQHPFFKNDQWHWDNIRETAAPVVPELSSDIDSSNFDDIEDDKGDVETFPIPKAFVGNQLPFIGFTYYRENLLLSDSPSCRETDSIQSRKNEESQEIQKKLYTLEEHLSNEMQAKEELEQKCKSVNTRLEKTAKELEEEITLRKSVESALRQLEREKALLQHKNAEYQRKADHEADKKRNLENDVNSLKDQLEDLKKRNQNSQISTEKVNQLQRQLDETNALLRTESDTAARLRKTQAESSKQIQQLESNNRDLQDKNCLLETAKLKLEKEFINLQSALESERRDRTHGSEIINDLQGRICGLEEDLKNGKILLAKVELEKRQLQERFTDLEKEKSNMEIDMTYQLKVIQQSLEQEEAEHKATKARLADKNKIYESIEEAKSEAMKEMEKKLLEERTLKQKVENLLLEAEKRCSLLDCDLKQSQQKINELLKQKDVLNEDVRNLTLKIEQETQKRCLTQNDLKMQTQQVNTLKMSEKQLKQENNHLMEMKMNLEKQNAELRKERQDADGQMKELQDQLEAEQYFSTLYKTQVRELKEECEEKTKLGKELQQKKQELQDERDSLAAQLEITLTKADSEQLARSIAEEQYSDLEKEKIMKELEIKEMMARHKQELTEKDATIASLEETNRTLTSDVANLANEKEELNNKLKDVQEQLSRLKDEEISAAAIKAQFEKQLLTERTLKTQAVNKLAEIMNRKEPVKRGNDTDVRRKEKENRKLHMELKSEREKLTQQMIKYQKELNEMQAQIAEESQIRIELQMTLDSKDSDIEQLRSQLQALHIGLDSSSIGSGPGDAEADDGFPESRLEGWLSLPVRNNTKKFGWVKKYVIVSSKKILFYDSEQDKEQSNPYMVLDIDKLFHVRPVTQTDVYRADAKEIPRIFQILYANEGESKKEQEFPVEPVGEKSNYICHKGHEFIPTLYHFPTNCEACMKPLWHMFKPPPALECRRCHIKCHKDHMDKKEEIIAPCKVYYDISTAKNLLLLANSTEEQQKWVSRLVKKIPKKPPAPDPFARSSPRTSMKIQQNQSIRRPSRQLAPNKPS
# Experiment: In vitro percent inhibition of Protein kinase ROCK2 at 10 uM concentration of compound dissolved in 100% DMSO using 5''-[gamma-33P]-triphosphate
# Conditions: not given
row,inhibition [%],Structure (SMILES)
1,-1,COc1cc2nc3nc(-c4cccs4)c(-c4cccs4)nc3nc2cc1OC
2,0,O=C(O)CCCc1ccc(-c2nc3cc4ccccc4cc3nc2-c2ccc(CCCC(=O)O)s2)s1

# Biological target: Casein kinase I isoform alpha (Homo sapiens) (UniProt P48729)
# Experiment: In vitro percent inhibition of Casein kinase 1 alpha at 10 uM concentration of compound dissolved in 100% DMSO using 5''-[gamma-33P]-triphosphate
# Conditions: not given
row,inhibition [%],Structure (SMILES)
1,2,COc1cc2nc3nc(-c4cccs4)c(-c4cccs4)nc3nc2cc1OC
2,24,O=C(O)CCCc1ccc(-c2nc3cc4ccccc4cc3nc2-c2ccc(CCCC(=O)O)s2)s1

# Biological target: T1, Inhibitor of nuclear factor kappa-B kinase subunit beta (Homo sapiens) (UniProt O14920)
# T1 sequence (whole entry): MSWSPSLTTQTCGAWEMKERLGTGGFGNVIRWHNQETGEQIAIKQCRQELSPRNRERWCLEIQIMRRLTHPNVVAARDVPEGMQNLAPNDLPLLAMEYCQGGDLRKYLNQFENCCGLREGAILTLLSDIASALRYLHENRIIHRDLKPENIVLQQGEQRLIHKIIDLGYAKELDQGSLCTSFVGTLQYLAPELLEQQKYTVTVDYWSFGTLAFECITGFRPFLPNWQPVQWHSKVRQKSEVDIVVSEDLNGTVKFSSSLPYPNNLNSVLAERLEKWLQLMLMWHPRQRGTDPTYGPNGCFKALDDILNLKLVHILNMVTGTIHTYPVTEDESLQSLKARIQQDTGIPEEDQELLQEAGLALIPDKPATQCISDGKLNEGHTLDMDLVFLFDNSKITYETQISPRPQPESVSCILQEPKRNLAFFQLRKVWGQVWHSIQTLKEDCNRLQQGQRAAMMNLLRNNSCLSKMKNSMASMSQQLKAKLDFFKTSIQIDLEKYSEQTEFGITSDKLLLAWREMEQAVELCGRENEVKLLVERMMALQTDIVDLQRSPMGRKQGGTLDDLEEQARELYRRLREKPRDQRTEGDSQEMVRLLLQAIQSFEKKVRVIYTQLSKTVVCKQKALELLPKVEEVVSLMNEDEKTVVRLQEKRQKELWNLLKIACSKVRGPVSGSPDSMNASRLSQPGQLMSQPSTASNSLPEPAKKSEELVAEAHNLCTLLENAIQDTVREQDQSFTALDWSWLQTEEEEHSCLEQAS
# Experiment: In vitro percent inhibition of I-kappa-B-kinase beta at 10 uM concentration of compound dissolved in 100% DMSO using 5''-[gamma-33P]-triphosphate
# Conditions: not given
row,inhibition [%],Structure (SMILES)
1,10,COc1cc2nc3nc(-c4cccs4)c(-c4cccs4)nc3nc2cc1OC
2,43,O=C(O)CCCc1ccc(-c2nc3cc4ccccc4cc3nc2-c2ccc(CCCC(=O)O)s2)s1

# Tested on: not listed separately
# Experiment: In vitro percent inhibition of Ribosomal S6 kinase 1 at 10 uM concentration of compound dissolved in 100% DMSO using 5''-[gamma-33P]-triphosphate
# Conditions: not given
row,inhibition [%],Structure (SMILES)
1,48,COc1cc2nc3nc(-c4cccs4)c(-c4cccs4)nc3nc2cc1OC
2,20,O=C(O)CCCc1ccc(-c2nc3cc4ccccc4cc3nc2-c2ccc(CCCC(=O)O)s2)s1

# Biological target: Proto-oncogene tyrosine-protein kinase Src (Homo sapiens) (UniProt P12931)
# Sequence (P12931 2-536 limits assumed): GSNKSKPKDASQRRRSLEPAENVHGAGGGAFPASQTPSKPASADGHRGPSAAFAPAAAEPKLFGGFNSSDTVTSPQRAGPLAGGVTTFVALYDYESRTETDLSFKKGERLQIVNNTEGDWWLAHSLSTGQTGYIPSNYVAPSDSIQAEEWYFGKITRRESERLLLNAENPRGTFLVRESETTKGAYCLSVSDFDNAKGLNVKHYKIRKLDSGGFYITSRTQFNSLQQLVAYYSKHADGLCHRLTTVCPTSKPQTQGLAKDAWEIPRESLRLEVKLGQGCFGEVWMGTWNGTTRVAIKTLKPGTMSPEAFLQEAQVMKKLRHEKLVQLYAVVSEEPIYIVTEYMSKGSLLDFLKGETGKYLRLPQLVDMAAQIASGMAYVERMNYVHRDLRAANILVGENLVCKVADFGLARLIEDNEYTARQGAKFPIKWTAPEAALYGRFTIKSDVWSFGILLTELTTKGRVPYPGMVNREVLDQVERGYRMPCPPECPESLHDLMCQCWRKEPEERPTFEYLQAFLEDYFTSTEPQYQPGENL
# Experiment: In vitro percent inhibition of c-Src tyrosine kinase at 10 uM concentration of compound dissolved in 100% DMSO using 5''-[gamma-33P]-triphosphate
# Conditions: not given
row,inhibition [%],Structure (SMILES)
1,9,COc1cc2nc3nc(-c4cccs4)c(-c4cccs4)nc3nc2cc1OC
2,35,O=C(O)CCCc1ccc(-c2nc3cc4ccccc4cc3nc2-c2ccc(CCCC(=O)O)s2)s1

# Biological target: T2, Tyrosine-protein kinase transforming protein Abl (Abelson murine leukemia virus) (UniProt P00521)
# T2 sequence (whole entry): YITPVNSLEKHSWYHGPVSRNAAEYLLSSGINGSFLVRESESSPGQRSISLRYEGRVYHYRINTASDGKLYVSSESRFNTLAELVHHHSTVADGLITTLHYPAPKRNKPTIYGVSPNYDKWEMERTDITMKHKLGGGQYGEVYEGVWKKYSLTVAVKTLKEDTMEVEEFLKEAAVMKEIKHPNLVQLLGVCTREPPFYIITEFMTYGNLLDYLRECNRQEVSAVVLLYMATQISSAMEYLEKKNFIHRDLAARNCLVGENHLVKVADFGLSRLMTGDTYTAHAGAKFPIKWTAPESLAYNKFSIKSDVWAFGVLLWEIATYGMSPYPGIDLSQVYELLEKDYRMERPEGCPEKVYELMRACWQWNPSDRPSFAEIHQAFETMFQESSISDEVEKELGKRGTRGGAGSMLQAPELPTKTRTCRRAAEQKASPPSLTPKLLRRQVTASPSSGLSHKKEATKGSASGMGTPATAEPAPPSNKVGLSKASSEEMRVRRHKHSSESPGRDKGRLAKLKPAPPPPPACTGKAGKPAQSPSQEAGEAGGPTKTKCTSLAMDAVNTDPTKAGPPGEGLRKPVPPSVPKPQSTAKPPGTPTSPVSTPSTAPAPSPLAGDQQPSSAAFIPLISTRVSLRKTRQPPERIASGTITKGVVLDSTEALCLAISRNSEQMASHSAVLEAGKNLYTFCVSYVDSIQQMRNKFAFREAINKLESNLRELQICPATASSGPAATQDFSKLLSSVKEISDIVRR
# Experiment: In vitro percent inhibition of v-Abl tyrosine kinase at 10 uM concentration of compound dissolved in 100% DMSO using 5''-[gamma-33P]-triphosphate
# Conditions: not given
row,inhibition [%],Structure (SMILES)
1,-1,COc1cc2nc3nc(-c4cccs4)c(-c4cccs4)nc3nc2cc1OC

# Tested on: not listed separately
# Experiment: Partition coefficient (logP)
# Format: physicochemical
# Conditions: octanol/water
row,logP,Structure (SMILES)
1,4.79,COc1cc2nc3nc(-c4cccs4)c(-c4cccs4)nc3nc2cc1OC
2,4.77,O=C(O)CCCc1ccc(-c2nc3cc4ccccc4cc3nc2-c2ccc(CCCC(=O)O)s2)s1

# Biological target: Epidermal growth factor receptor (Homo sapiens) (UniProt P00533)
# Sequence (P00533 whole entry): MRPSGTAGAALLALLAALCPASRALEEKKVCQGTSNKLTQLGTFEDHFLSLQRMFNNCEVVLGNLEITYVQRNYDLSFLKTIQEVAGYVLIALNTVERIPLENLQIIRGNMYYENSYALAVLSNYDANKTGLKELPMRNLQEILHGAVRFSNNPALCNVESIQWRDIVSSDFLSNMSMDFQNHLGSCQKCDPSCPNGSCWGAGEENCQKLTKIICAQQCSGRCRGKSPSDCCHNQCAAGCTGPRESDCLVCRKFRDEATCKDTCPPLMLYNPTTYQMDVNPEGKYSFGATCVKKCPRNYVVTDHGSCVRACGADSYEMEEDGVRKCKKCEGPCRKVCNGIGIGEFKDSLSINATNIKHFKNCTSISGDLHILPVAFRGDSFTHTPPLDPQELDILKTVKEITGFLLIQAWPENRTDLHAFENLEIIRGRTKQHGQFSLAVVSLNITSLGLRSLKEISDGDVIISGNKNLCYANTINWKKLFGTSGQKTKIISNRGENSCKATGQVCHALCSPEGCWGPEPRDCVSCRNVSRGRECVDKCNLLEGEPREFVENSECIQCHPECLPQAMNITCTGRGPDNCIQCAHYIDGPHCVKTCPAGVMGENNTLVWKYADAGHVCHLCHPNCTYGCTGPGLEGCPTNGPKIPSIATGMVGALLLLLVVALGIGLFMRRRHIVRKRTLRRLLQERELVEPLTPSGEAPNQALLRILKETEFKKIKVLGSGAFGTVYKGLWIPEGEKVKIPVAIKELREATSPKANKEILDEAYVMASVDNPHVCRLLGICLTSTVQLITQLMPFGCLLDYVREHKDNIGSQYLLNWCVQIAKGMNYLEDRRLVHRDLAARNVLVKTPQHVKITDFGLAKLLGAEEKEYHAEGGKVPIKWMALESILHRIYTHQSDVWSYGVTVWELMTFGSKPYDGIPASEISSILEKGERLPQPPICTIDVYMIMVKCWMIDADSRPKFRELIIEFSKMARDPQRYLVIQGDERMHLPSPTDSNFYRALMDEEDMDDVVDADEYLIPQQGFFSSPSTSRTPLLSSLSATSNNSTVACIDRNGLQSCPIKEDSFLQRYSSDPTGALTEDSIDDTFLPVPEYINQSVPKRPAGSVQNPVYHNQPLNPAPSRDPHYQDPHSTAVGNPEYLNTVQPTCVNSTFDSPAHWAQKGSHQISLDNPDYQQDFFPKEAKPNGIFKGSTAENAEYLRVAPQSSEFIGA
# Conditions: 10 uM
row,inhibition [%],Structure (SMILES)
1,20,COc1cc2nc3nc(-c4cccs4)c(-c4cccs4)nc3nc2cc1OC
2,32,O=C(O)CCCc1ccc(-c2nc3cc4ccccc4cc3nc2-c2ccc(CCCC(=O)O)s2)s1
